Data taken from patent US10611732B2, “HIV replication inhibiting pyrimidines” (Janssen Pharmaceutica NV, priority 2001, dated 2020).
Read-outs that look alike come from different tables or passages of the source.

Key:
HIV = assay: microbe, parasite or virus in culture; details: for pIC50 (−log IC50): HIV-infected MT-4 cells; for pIC50 (−log IC50) / IC50: dose achieving 50% protection, MTT, OD 540 nm; for pSI (pCC50-pIC50): selectivity index, ratio of CC50 to IC50, as log difference; for IC50: Human immunodeficiency virus 1, MT4, read-out: pIC50 (−log IC50), HIV-infected MT-4 cells (converted)
Method: (§1) A rapid, sensitive and automated assay procedure was used for the in vitro evaluation of anti-HIV agents. An […] T4-cell line, MT-4, which was previously shown (Koyanagi et al., Int. J Cancer, 36, 445-451, 1985) to be highly susceptible to and permissive for HIV infection, served as the target cell line. Inhibition of the HIV-induced cytopathic effect was used as the end point. The viability of both HIV- and mock-infected cells was assessed spectrophotometrically via the in situ reduction of 3-(4,5-dimethylthiazol-2-yl)-2,5-diphenyltetrazolium bromide (MTT). The 50% cytotoxic concentration (CC50 in M) was defined as the concentration of compound that reduced the absorbance of the mock-infected control sample by 50%. The percent protection achieved by the compound in HIV-infected cells was calculated by the following formula:
(§2) [formula] whereby (ODT)HIV is the optical density measured with a given concentration of the test compound in HIV-infected cells; (ODC)HIV is the optical density measured for the control untreated HIV-infected cells; (ODC)MOCK is the optical density measured for the control untreated mock-infected cells; all optical density values were determined at 540 nm. The dose achieving 50% protection according to the above formula was defined as the 50% inhibitory concentration (IC50 in M). The ratio of CC50 to IC50 was defined as the selectivity index (SI).
(§3) Table 6 lists the pIC50 (−log IC50), pCC50 (−log CC50) and pSI (pCC50-pIC50) values for the compounds of formula (I).

mock-infected MT-4 cells = assay: cytotoxicity in mock-infected MT-4 cells (MTT)
Method: as §1, §2, §3

[1] = mock-infected MT-4 cells, concentration reducing absorbance of control by 50%, MTT

## Cc1cc(C=C(C#N)CC#N)cc(C)c1Nc1ccnc(Nc2ccc(C#N)cc2)n1 (mixture of isomers) [Compound 147]
HIV
  pIC50 (−log IC50): 9.4
  pSI (pCC50-pIC50): −3.7
mock-infected MT-4 cells
  pCC50 (−log CC50): 5.7 M

## Cc1cc(/C=C/C#N)cc(C)c1Nc1ccnc(Nc2ccc(C#N)cc2)n1 [Compound 1, 4-[[4-[[4-(2-cyanoethenyl)-2,6-dimethylphenyl]amino]-2-pyrimidinyl]amino]benzonitrile (E)]
HIV
  IC50: 0.398 nM
  pSI (pCC50-pIC50): −4.4
mock-infected MT-4 cells; [1]
  pCC50 (−log CC50): 5.0 M

## Cc1cc(-c2ccco2)cc(C)c1Nc1ccnc(Nc2ccc(C#N)cc2)n1 [Compound 3]
HIV
  IC50: 3.98 nM
  pSI (pCC50-pIC50): −2.9

## CO/N=C(\c1cc(C)c(Nc2ccnc(Nc3ccc(C#N)cc3)n2)c(C)c1)C(C)C [Compound 9]
HIV
  IC50: 1.58 nM
  pSI (pCC50-pIC50): −4

## Cc1cc(/C=C\C#N)cc(C)c1Nc1ccnc(Nc2ccc(C#N)cc2)n1 [Compound 10]
HIV
  pSI (pCC50-pIC50): −2.9
mock-infected MT-4 cells
  pCC50 (−log CC50): 6.3 M

## C/C(C#N)=C/c1cc(C)c(Nc2ccnc(Nc3ccc(C#N)cc3)n2)c(C)c1 [Compound 11]
HIV
  pIC50 (−log IC50): 9.2
  pSI (pCC50-pIC50): −3.5
mock-infected MT-4 cells
  pCC50 (−log CC50): 5.7 M

## Cc1cc(C(O)CC#N)cc(C)c1Nc1ccnc(Nc2ccc(C#N)cc2)n1 (stereo not shown) [Compound 18]
HIV
  IC50: 1.58 nM
  pSI (pCC50-pIC50): −4.0

## Cc1cc(-c2ccsc2)cc(C)c1Nc1ccnc(Nc2ccc(C#N)cc2)n1 [Compound 21]
HIV
  IC50: 3.98 nM
  pSI (pCC50-pIC50): −3.5

## Cc1cc(CCC#N)cc(C)c1Nc1ccnc(Nc2ccc(C#N)cc2)n1 [Compound 24]
HIV
  IC50: 0.794 nM
  pSI (pCC50-pIC50): −3.4

## Cc1cc(C=CC#N)cc(C)c1Oc1ccnc(Nc2ccc(C#N)cc2)n1 [Compound 25]
HIV
  pIC50 (−log IC50): 9
  pSI (pCC50-pIC50): −5

## CC(=O)c1cccc(-c2cc(C)c(Nc3ccnc(Nc4ccc(C#N)cc4)n3)c(C)c2)c1 [Compound 34]
HIV
  IC50: 10 nM
  pSI (pCC50-pIC50): −3.2

## CC(=NO)c1cc(C)c(Nc2ccnc(Nc3ccc(C#N)cc3)n2)c(C)c1 [Compound 45]
HIV
  pIC50 (−log IC50): 8.7
  pSI (pCC50-pIC50): −3.8
mock-infected MT-4 cells
  pCC50 (−log CC50): 5.0 M

## Cc1cc(/C=C(\C#N)c2cccs2)cc(C)c1Nc1ccnc(Nc2ccc(C#N)cc2)n1 [Compound 49]
HIV
  IC50: 10 nM
  pSI (pCC50-pIC50): −3.2

## Cc1cc(Cn2ccnc2)cc(C)c1Nc1ccnc(Nc2ccc(C#N)cc2)n1 [Compound 70]
HIV
  IC50: 7.94 nM
  pSI (pCC50-pIC50): −3.3

## Cc1cc(CN(C)CCC#N)cc(C)c1Nc1ccnc(Nc2ccc(C#N)cc2)n1 [Compound 75]
HIV
  pIC50 (−log IC50): 9.0
  pSI (pCC50-pIC50): −4.0
mock-infected MT-4 cells
  pCC50 (−log CC50): 5.0 M

## Cc1cc(CN2CCSC2)cc(C)c1Nc1ccnc(Nc2ccc(C#N)cc2)n1 [Compound 78]
HIV
  IC50: 3.98 nM
  pSI (pCC50-pIC50): −3.5

## CCN(Cc1ccncc1)Cc1cc(C)c(Nc2ccnc(Nc3ccc(C#N)cc3)n2)c(C)c1 [Compound 79]
HIV
  IC50: 10 nM
  pSI (pCC50-pIC50): −2.7

## C/C(=C\C#N)c1cc(C)c(Nc2ccnc(Nc3ccc(C#N)cc3)n2)c(C)c1 [Compound 84]
HIV
  pIC50 (−log IC50): 9.0
  pSI (pCC50-pIC50): −4.5
mock-infected MT-4 cells
  pCC50 (−log CC50): 4.5 M

## Cc1cc(-n2cccc2)cc(C)c1Oc1ccnc(Nc2ccc(C#N)cc2)n1 [Compound 118]
HIV
  IC50: 3.98 nM
  pSI (pCC50-pIC50): <−4.1

## Cc1cc(/C(Cl)=C\C#N)cc(C)c1Nc1ccnc(Nc2ccc(C#N)cc2)n1 [Compound 124]
HIV
  IC50: 3.16 nM
  pSI (pCC50-pIC50): −3.8

## Cc1cc(/C=C/C#N)cc(Cl)c1Nc1ccnc(Nc2ccc(C#N)cc2)n1 [Compound 133]
HIV
  pIC50 (−log IC50): 9.2
  pSI (pCC50-pIC50): −5.2
mock-infected MT-4 cells
  pCC50 (−log CC50): 4 M

## Cc1cc(CC(C#N)C#N)cc(C)c1Nc1ccnc(Nc2ccc(C#N)cc2)n1 [Compound 144]
HIV
  pIC50 (−log IC50): 8.6
  pSI (pCC50-pIC50): −2.2
mock-infected MT-4 cells
  pCC50 (−log CC50): 6.4 M

## Cc1cc(/C=C/c2cccnc2)cc(C)c1Nc1ccnc(Nc2ccc(C#N)cc2)n1 [Compound 145]
HIV
  IC50: 2 nM
  pSI (pCC50-pIC50): −3.4

## Cc1cc(/C=C/c2cccnc2)cc(C)c1Nc1ccnc(Nc2ccc(C#N)cc2)n1 [Compound 146]
HIV
  pIC50 (−log IC50): 8.4
  pSI (pCC50-pIC50): −3
mock-infected MT-4 cells; [1]
  pCC50 (−log CC50): 5.4 M

## CC/C(=C\C#N)c1cc(C)c(Nc2ccnc(Nc3ccc(C#N)cc3)n2)c(C)c1 [Compound 148]
HIV
  pIC50 (−log IC50): 8.8
  pSI (pCC50-pIC50): −3.9
mock-infected MT-4 cells
  pCC50 (−log CC50): 4.9 M

## Cc1cc(/C(=C/C#N)C(C)C)cc(C)c1Nc1ccnc(Nc2ccc(C#N)cc2)n1 [Compound 149]
HIV
  pIC50 (−log IC50): 9.1
  pSI (pCC50-pIC50): −3.8
mock-infected MT-4 cells
  pCC50 (−log CC50): 5.3 M

## Cc1cc(/C(=C\C#N)C(C)C)cc(C)c1Nc1ccnc(Nc2ccc(C#N)cc2)n1 [Compound 150]
HIV
  pIC50 (−log IC50): 8.8
  pSI (pCC50-pIC50): −4.0
mock-infected MT-4 cells
  pCC50 (−log CC50): 4.8 M

## C/C(C#N)=C/c1cc(C)c(Nc2ccnc(Nc3ccc(C#N)cc3)n2)c(C)c1 [Compound 151]
HIV
  pIC50 (−log IC50): 9.1
  pSI (pCC50-pIC50): −3.6
mock-infected MT-4 cells
  pCC50 (−log CC50): 5.5 M

## C/C(C#N)=C/c1cc(C)c(Nc2ccnc(Nc3ccc(C#N)cc3)n2)c(C)c1 [Compound 152]
HIV
  pIC50 (−log IC50): 9.1
  pSI (pCC50-pIC50): −4.3
mock-infected MT-4 cells
  pCC50 (−log CC50): 4.8 M

## Cc1cc(CC(C)C#N)cc(C)c1Nc1ccnc(Nc2ccc(C#N)cc2)n1 (stereo not shown) [Compound 153]
HIV
  pIC50 (−log IC50): 9.2
  pSI (pCC50-pIC50): −2.9
mock-infected MT-4 cells
  pCC50 (−log CC50): 6.3 M

## Cc1cc(/C=C/C(=O)N2CCN(C)CC2)cc(C)c1Nc1ccnc(Nc2ccc(C#N)cc2)n1 [Compound 155]
HIV
  IC50: 1.58 nM
  pSI (pCC50-pIC50): −2.5

## Cc1cc(/C=C/C(=O)N2CCOCC2)cc(C)c1Nc1ccnc(Nc2ccc(C#N)cc2)n1 [Compound 156]
HIV
  IC50: 20 nM
  pSI (pCC50-pIC50): −2.6

## CCN(C)C(=O)/C=C/c1cc(C)c(Nc2ccnc(Nc3ccc(C#N)cc3)n2)c(C)c1 [Compound 158]
HIV
  pIC50 (−log IC50): 8
  pSI (pCC50-pIC50): −2.5
mock-infected MT-4 cells
  pCC50 (−log CC50): 5.5 M

## Cc1cc(CN(C)C=NC#N)cc(C)c1Oc1ccnc(Nc2ccc(C#N)cc2)n1 [Compound 174]
HIV
  pIC50 (−log IC50): 8.8
  pSI (pCC50-pIC50): −3.5
mock-infected MT-4 cells
  pCC50 (−log CC50): 5.3 M

## Cc1cc(/C=C\Br)cc(C)c1Oc1ccnc(Nc2ccc(C#N)cc2)n1 [Compound 177]
HIV
  pIC50 (−log IC50): 8.3
  pSI (pCC50-pIC50): <−4.3
mock-infected MT-4 cells
  pCC50 (−log CC50): <4.0 M

## C/C(C#N)=C/c1cc(C)c(Oc2ccnc(Nc3ccc(C#N)cc3)n2)c(C)c1 [Compound 178]
HIV
  pIC50 (−log IC50): 8.8
  pSI (pCC50-pIC50): −3.1
mock-infected MT-4 cells
  pCC50 (−log CC50): 5.7 M

## C/C(C#N)=C\c1cc(C)c(Oc2ccnc(Nc3ccc(C#N)cc3)n2)c(C)c1 [Compound 179]
HIV
  pIC50 (−log IC50): 8.9
  pSI (pCC50-pIC50): <−4.9
mock-infected MT-4 cells
  pCC50 (−log CC50): <4.0 M

## Cc1cc(/C=C/C(=O)N2CC=CC2)cc(C)c1Oc1ccnc(Nc2ccc(C#N)cc2)n1 [Compound 209]
HIV
  IC50: 2.51 nM
  pSI (pCC50-pIC50): −3.7

## Cc1cc(/C=C/C(=O)N(C)C2CCN(C)CC2)cc(C)c1Oc1ccnc(Nc2ccc(C#N)cc2)n1 [Compound 210]
HIV
  IC50: 5.01 nM
  pSI (pCC50-pIC50): −3.5

## Cc1cc(/C=C/C(=O)N(C)CC#N)cc(C)c1Oc1ccnc(Nc2ccc(C#N)cc2)n1 [Compound 212]
HIV
  pIC50 (−log IC50): 9.1
  pSI (pCC50-pIC50): −4.1
mock-infected MT-4 cells
  pCC50 (−log CC50): 5 M

## CC(=CC#N)c1cc(C)c(Oc2ccnc(Nc3ccc(C#N)cc3)n2)c(C)c1 [Compound 213]
HIV
  pIC50 (−log IC50): 9
  pSI (pCC50-pIC50): −4.2
mock-infected MT-4 cells
  pCC50 (−log CC50): 4.8 M

## Cc1cc(/C=C/C(=O)N(C)CCC#N)cc(C)c1Oc1ccnc(Nc2ccc(C#N)cc2)n1 [Compound 214]
HIV
  pIC50 (−log IC50): 8.6
  pSI (pCC50-pIC50): −3.5
mock-infected MT-4 cells
  pCC50 (−log CC50): 5.1 M

## CCN(C)C(=O)/C=C/c1cc(C)c(Oc2ccnc(Nc3ccc(C#N)cc3)n2)c(C)c1 [Compound 215]
HIV
  pIC50 (−log IC50): 9.1
  pSI (pCC50-pIC50): −3.6
mock-infected MT-4 cells
  pCC50 (−log CC50): 5.5 M

## Cc1cc(/C=C/C(=O)N2CCOCC2)cc(C)c1Oc1ccnc(Nc2ccc(C#N)cc2)n1 [Compound 216]
HIV
  IC50: 6.31 nM
  pSI (pCC50-pIC50): −3.6

## Cc1cc(/C=C/C(=O)N(C)C)cc(C)c1Oc1ccnc(Nc2ccc(C#N)cc2)n1 [Compound 219]
HIV
  pIC50 (−log IC50): 9.1
  pSI (pCC50-pIC50): −4.1
mock-infected MT-4 cells
  pCC50 (−log CC50): 5 M

## Cc1cc(CCC#N)ccc1Nc1ccnc(Nc2ccc(C#N)cc2)n1 [Compound 227]
HIV
  pIC50 (−log IC50): 9.5
  pSI (pCC50-pIC50): <−5.5
mock-infected MT-4 cells
  pCC50 (−log CC50): <4.0 M

## CC(C#N)=Cc1ccc(Nc2ccnc(Nc3ccc(C#N)cc3)n2)c(C)c1 [Compound 229]
HIV
  pIC50 (−log IC50): 8.8
  pSI (pCC50-pIC50): <−4.8
mock-infected MT-4 cells
  pCC50 (−log CC50): <4.0 M

## Cc1cc(/C=C/C#N)ccc1Oc1ccnc(Nc2ccc(C#N)cc2)n1 [Compound 230]
HIV
  pIC50 (−log IC50): 9.2
  pSI (pCC50-pIC50): <−5.2
mock-infected MT-4 cells
  pCC50 (−log CC50): <4.0 M
